Values belong to the compound of their own block, whether it stands above or below them. Active and inactive are the calls of the source. Rule as the data show it, for most assays here: actives have a measured IC50 and inactives only a lower limit.
Legend:
Insulin-degrading enzyme [1] = target: T1, Insulin-degrading enzyme (Homo sapiens, UniProt P14735); test: activators of endogenous IDE in HEK cells, dose response, cell-based, fluorescence polarization (AID 588439); assay type: functional
T1 sequence (P14735 whole entry): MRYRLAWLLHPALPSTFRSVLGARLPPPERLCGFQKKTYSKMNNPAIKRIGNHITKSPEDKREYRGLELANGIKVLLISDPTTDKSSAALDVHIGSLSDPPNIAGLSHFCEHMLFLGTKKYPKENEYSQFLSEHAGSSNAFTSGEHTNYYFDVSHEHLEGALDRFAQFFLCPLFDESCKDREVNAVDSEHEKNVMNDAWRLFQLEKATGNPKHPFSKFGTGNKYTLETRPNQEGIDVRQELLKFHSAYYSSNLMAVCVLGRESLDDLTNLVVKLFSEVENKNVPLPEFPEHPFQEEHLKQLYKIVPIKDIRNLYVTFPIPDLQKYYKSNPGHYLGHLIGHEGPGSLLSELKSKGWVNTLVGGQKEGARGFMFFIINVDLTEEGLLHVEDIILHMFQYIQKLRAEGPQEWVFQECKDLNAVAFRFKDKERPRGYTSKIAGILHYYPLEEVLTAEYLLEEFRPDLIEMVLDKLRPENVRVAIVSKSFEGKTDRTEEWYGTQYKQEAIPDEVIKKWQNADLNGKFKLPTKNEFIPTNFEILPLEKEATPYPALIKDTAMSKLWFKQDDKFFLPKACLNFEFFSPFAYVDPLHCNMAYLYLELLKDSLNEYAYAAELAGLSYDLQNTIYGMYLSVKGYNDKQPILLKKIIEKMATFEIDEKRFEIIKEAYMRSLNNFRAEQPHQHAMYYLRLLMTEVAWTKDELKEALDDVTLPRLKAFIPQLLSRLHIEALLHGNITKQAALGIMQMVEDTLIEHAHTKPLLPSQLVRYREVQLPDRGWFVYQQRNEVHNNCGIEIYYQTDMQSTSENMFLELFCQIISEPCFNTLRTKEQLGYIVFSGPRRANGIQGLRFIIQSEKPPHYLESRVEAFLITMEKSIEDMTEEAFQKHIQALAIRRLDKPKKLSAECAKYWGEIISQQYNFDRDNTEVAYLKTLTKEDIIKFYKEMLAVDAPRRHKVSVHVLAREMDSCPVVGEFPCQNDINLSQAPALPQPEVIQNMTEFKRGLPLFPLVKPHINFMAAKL

HEK293 [2] = test: optical interference in Abeta FP readout, dose response, artefact control for IDE activator project, biochemical, fluorescence polarization (AID 588442); assay type: functional, cell-based; conditions: Homo sapiens
HEK293 [3] = test: HEK cell cytotoxicity by LDH release, dose response, cytotoxicity control for IDE activator project, fluorescence, HEK cells (AID 588440); assay type: functional, cell-based; conditions: Homo sapiens;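 also: cytotoxicity by LDH release measuring loss of membrane integrity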
Insulin-degrading enzyme [4] = target: T1, Insulin-degrading enzyme; test: activators of recombinant IDE enzyme, dose response, counter-screen for IDE activator project, biochemical, fluorescence polarization (AID 588681)
[5] = target: T2, Sentrin-specific protease 8 (Homo sapiens, UniProt Q96LD8); test: SENP8 protease inhibitors, SAR follow-up, biochemical, luminescence, set 2 (AID 588601); assay type: functional
T2 sequence (Q96LD8 whole entry): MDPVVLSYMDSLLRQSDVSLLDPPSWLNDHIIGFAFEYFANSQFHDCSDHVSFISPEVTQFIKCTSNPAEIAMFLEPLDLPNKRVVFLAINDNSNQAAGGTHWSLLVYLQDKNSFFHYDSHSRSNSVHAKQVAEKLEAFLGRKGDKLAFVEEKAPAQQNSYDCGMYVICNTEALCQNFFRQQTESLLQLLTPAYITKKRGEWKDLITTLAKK

[6] = target: T3, Sentrin-specific protease 7 (Homo sapiens, UniProt Q9BQF6); test: SENP7 protease inhibitors, SAR follow-up, biochemical, luminescence, set 2 (AID 588600); assay type: functional
T3 sequence (Q9BQF6 whole entry): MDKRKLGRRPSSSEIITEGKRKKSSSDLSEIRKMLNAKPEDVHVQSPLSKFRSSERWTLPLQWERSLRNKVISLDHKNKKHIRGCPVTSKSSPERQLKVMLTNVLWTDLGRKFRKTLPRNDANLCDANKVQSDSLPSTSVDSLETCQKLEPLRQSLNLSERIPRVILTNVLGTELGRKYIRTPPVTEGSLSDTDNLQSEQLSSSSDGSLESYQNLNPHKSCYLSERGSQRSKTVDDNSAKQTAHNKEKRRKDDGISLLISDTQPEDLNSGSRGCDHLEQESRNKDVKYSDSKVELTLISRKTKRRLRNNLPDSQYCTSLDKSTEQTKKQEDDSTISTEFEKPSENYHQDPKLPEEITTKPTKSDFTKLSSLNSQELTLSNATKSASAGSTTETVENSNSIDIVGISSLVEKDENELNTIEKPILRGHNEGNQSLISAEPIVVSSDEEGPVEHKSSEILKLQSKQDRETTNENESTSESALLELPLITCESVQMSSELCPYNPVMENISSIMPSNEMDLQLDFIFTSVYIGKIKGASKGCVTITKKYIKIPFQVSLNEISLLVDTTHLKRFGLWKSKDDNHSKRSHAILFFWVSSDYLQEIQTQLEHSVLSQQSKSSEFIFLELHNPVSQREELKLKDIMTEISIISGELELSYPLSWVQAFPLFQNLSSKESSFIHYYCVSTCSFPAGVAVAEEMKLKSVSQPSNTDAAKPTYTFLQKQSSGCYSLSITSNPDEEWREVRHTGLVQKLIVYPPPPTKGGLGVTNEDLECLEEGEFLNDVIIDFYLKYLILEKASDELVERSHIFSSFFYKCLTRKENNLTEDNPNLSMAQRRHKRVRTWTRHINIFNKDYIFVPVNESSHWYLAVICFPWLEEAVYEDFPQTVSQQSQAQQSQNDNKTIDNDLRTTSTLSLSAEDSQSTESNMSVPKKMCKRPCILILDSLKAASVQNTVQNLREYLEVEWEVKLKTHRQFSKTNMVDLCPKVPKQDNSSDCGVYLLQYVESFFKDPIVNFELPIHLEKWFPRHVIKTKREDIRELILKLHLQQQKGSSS

Caspase-3 [7] = target: T4, Caspase-3 (Homo sapiens, UniProt P42574); test: caspase-3 inhibitors as off-family protease, SAR follow-up, selectivity assay for SENP protease inhibitor project, biochemical, luminescence, set 2 (AID 588599); assay type: functional
T4 sequence (P42574 whole entry): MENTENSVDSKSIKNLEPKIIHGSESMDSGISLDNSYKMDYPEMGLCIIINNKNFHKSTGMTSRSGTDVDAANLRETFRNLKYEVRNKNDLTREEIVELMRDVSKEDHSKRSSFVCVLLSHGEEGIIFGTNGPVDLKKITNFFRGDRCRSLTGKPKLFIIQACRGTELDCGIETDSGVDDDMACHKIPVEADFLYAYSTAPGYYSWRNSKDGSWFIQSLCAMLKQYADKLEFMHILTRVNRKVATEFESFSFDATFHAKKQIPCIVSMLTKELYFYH

[8] = target: T5, Sentrin-specific protease 6 (Homo sapiens, UniProt Q9GZR1); test: SENP6 protease inhibitors, SAR follow-up, biochemical, luminescence, set 2 (AID 588598); assay type: functional
T5 sequence (Q9GZR1 whole entry): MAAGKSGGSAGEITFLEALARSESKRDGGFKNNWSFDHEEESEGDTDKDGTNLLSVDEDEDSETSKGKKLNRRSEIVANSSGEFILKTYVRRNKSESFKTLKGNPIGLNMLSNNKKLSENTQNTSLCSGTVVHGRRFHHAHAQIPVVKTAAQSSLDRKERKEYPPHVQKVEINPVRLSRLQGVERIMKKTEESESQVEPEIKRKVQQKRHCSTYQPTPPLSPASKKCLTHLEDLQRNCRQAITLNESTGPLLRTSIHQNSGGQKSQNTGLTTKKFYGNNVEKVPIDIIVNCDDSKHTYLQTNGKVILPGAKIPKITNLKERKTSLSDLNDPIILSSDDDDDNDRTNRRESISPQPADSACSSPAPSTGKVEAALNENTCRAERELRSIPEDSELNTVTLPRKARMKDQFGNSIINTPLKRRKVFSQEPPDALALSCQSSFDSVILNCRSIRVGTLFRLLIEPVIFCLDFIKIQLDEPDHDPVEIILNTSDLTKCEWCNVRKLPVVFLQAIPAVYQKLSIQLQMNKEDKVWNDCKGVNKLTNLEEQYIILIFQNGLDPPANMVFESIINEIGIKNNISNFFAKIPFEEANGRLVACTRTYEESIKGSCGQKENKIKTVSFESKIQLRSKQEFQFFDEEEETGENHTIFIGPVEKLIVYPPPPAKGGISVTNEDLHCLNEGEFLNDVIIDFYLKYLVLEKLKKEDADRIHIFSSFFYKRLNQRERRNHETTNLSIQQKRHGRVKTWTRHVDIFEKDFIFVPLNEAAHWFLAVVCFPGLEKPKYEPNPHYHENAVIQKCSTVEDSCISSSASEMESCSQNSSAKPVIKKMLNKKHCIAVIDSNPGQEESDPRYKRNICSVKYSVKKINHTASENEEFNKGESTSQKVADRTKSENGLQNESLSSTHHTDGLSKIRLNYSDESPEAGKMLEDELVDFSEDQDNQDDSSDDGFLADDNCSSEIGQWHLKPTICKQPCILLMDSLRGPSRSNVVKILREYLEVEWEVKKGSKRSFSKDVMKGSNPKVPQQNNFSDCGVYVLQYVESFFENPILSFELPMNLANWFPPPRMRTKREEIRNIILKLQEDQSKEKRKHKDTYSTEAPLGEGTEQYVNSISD

[9] = target: T5, Sentrin-specific protease 6; test: SAR Analysis of small molecule inhibitors of Sentrin-specific protease 6 (SENP6) using a Luminescent assay. [Related pubchem assays (depositor defined):AID2582, AID2599]; assay type: functional
[10] = target: T2, Sentrin-specific protease 8; test: SENP8 protease inhibitors, SAR follow-up, biochemical, luminescence (AID 504501); assay type: functional
[11] = target: T3, Sentrin-specific protease 7; test: SENP7 protease inhibitors, SAR follow-up, biochemical, luminescence (AID 504497); assay type: functional
Caspase-3 [12] = target: T4, Caspase-3; test: SAR Analysis of small molecule inhibitors of Sentrin-specific proteases (SENPs) using a Caspase-3 Selectivity assay. [Related pubchem assays (depositor defined):AID2540, AID2599, AID434973, AID489001]; assay type: functional

SMILES: O=C(CN1CCN(CN2C(=O)NC3(CCCCCC3)C2=O)CC1)Nc1ccc(F)cc1
EC50 (Insulin-degrading enzyme [1]): > 54.7 µM (inactive)
EC50 (HEK293 [2]): > 55.9 µM (inactive)
IC50 (HEK293 [3]): > 89.2 µM (inactive)
EC50 (Insulin-degrading enzyme [4]): > 54.7 µM (inactive)

IC50 [6]: > 99 µM (inactive)
IC50 (Caspase-3 [7]): > 99 µM (inactive)
IC50 [8]: > 99 µM (inactive)
SMILES: Cc1sc2ncnc(N3CCC(C(=O)Nc4nc5c(F)cc(F)cc5s4)CC3)c2c1C
IC50 [5]: > 99 µM (inactive)

IC50 [9]: > 99 µM (inactive)
IC50 [11]: > 99 µM (inactive)
IC50 (Caspase-3 [12]): > 99 µM (inactive)
SMILES: N#Cc1c(NC(=O)c2cc3ncc(Br)cn3n2)sc2c1CCCC2
IC50 [10]: > 99 µM (inactive)

From ChEMBL document CHEMBL1201862, “PubChem BioAssay data set” (2004)
